{"source": "patent US11932628B2", "about": "“Selective small molecule peptidomimetic melanocortin ligands” (REGENTS OF THE UNIVERSITY OF MINNESOTA, priority 2021, dated 2024)", "key": {"mMC4R": {"target": "mMC4R (Mus musculus, UniProt P56450)", "sequence (P56450 whole entry)": "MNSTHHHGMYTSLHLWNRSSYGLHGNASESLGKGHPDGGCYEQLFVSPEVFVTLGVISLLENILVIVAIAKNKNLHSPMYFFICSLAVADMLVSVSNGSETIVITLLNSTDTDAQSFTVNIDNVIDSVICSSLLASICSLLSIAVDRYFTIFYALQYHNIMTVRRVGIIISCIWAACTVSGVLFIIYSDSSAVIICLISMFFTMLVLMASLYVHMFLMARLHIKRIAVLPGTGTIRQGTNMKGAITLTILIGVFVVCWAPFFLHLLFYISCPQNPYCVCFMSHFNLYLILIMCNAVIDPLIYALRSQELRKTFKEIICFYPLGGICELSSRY", "experiment": "cAMP based functional bioassay (CRE/β-galactosidase reporter), agonist activity at mMC4R", "conditions": "for mMC4R Activity @ 10 μM (class) / mMC4R Activity @ 10 μM (relative activity, percent): reported where receptor not activated to full activity", "protocol": "(§1) The compounds were evaluated using a whole cell assay.\n(§2) Compounds were dissolved in DMSO at a stock concentration of 10^−2 M and stored at −20° C. until assayed. HEK-293 cells stably expressing the selected melanocortin receptors were transiently transfected with 4 μg of CRE/β-galactosidase reporter gene. Briefly, 5000-15000 post transfection cells were plated into collagen treated 96-well plates (Nunc) and incubated overnight. […] The assay media was aspirated, and 50 μL of lysis buffer (250 mM Tris-HCl pH=8.0 and 0.1% Triton X-100) was added. The plates were stored at −80° C. overnight. The plates containing the cell lysates were thawed the following day. Aliquots of 10 μL were taken from each well and transferred to another 96-well plate for relative protein determination. To the cell lysate plates, 40 μL of phosphate-buffered saline with 0.5% BSA was added to each well. Subsequently, 150 μL of substrate buffer (60 mM sodium phosphate, 1 mM MgCl2, 10 mM KCl, 5 mM β-mercaptoethanol, 2 mg/mL ONPG) was added to each well and the plates were incubated at 37° C. The sample absorbance, OD405, was measured using a 96-well plate reader (Molecular Devices). The relative protein was determined by adding 200 μL of 1:5 dilution BioRad G250 protein dye:water to the 10 μL of cell lysate sample taken previously, and the OD595 was measured on a 96-well plate reader (Molecular Devices). Data points were normalized to forskolin and the relative protein content were used as positive controls. The EC50 values represent the mean of three or more independent experiments. The EC50 estimates, and their associated standard errors of the mean, were determined by fitting the data to a nonlinear least-squares analysis using the PRISM program (v4.0, GraphPad Inc.).\n(§3) The results are tabulated in the form of EC50 values. In the case where the particular receptor was not activated to full activity at 100,000 nM, then the relative activity was reported."}, "mMC5R": {"target": "mMC5R (Mus musculus, UniProt P41149)", "sequence (P41149 whole entry)": "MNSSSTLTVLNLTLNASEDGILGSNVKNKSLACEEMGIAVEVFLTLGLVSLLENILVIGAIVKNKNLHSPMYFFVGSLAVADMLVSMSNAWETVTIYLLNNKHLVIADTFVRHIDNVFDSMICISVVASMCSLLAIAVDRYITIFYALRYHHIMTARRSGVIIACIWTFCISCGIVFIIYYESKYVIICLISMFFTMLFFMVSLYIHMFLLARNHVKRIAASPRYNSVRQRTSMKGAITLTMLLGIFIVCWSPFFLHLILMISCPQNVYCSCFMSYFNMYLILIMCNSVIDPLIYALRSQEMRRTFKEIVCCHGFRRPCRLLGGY", "experiment": "cAMP based functional bioassay (CRE/β-galactosidase reporter), agonist activity at mMC5R", "conditions": "for mMC5R Activity @ 10 μM (class) / mMC5R Activity @ 10 μM (relative activity, percent): reported where receptor not activated to full activity", "protocol": "as §1, §2, §3"}, "mMC3R": {"target": "mMC3R (Mus musculus, UniProt P33033)", "sequence (P33033 whole entry)": "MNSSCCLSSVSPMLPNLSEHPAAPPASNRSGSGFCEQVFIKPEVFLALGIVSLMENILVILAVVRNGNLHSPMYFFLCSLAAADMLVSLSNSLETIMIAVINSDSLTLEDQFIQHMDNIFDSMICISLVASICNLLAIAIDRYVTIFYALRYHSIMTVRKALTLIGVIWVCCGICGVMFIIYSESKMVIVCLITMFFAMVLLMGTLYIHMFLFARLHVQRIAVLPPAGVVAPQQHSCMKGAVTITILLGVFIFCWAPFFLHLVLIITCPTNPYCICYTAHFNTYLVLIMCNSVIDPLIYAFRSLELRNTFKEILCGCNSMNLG", "experiment": "cAMP based functional bioassay (CRE/β-galactosidase reporter), agonist activity at mMC3R", "conditions": "reported where receptor not activated to full activity", "protocol": "as §1, §2, §3"}, "mMC1R": {"target": "mMC1R (Mus musculus, UniProt Q01727)", "sequence (Q01727 whole entry)": "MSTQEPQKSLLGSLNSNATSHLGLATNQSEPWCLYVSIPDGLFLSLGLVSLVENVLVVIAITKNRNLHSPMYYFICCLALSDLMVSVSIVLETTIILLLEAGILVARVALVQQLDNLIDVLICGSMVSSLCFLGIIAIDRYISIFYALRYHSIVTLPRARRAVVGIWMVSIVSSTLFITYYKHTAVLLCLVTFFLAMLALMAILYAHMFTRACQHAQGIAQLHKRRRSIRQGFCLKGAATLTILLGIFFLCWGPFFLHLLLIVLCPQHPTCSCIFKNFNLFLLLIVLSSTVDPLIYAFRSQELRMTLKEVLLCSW", "experiment": "cAMP based functional bioassay (CRE/β-galactosidase reporter), agonist activity at mMC1R", "conditions": "for mMC1R Activity @ 10 μM (class) / mMC1R Activity @ 10 μM (relative activity, percent): reported where receptor not activated to full activity", "protocol": "as §1, §2, §3"}}, "note": "Where two headings read alike, the source gives them in different places.", "data": [{"smiles": "CC(=O)N[C@@H](Cc1c[nH]cn1)C(=O)N[C@H](Cc1ccccc1)C(=O)N[C@@H](CCCNC(=N)N)C(=O)N[C@@H](Cc1c[nH]c2ccccc12)C(N)=O", "note": "[Ac-His-DPhe-Arg-Trp-NH2, reference compound]", "values": [{"measurement": "EC50", "setting": "mMC4R; read-out: mMC4R Mean ± SEM (agonist EC50), HEK-293 cells, mean of three or more experiments", "result": "5.5 ± 0.8", "unit": "nM"}, {"measurement": "EC50", "setting": "mMC5R; read-out: mMC5R Mean ± SEM (agonist EC50), HEK-293 cells, mean of three or more experiments", "result": "4.2 ± 1", "unit": "nM"}]}, {"smiles": "CC(C)C[C@@H]1CNC(=N)N1C[C@@H]1CCCN1C[C@@H](CC1CCCCC1)N1C[C@@H](C(C)C)N(CC2CCC(C(C)(C)C)CC2)C1=N", "note": "(stereo partly drawn) [TPI 2509-11, (R)-3-((4-(tert-butyl)cyclohexyl)methyl)-1-((R)-1-cyclohexyl-3-((S)-2-(((R)-2-imino-5-isobutylimidazolidin-1-yl)methyl)pyrrolidin-1-yl)propan-2-yl)-4-isopropylimidazolidin-2-imine]", "values": [{"measurement": "mMC3R Activity @ 10 μM (class)", "setting": "mMC3R", "result": "B (B: >51%)"}, {"measurement": "mMC3R Activity @ 10 μM (relative activity, percent)", "setting": "mMC3R", "result": 69, "unit": "%"}, {"measurement": "EC50", "setting": "mMC5R", "result": "560 ± 50", "unit": "nM"}, {"measurement": "mMC1R Activity @ 10 μM (class)", "setting": "mMC1R", "result": "B (B: >51%)"}, {"measurement": "mMC1R Activity @ 10 μM (relative activity, percent)", "setting": "mMC1R", "result": 54, "unit": "%"}]}, {"smiles": "CC(C)CCCN1C(=N)N([C@H](Cc2ccccc2)CN2CCC[C@H]2CN2C(=N)NC[C@H]2CC(C)C)C[C@H]1[C@@H](C)O", "note": "[TPI 2509-15, (R)-1-((S)-2-imino-1-((R)-1-((S)-2-(((R)-2-imino-5-isobutylimidazolidin-1-yl)methyl)pyrrolidin-1-yl)-3-phenylpropan-2-yl)-3-(4-methylpentyl)imidazolidin-4-yl)ethanol]", "values": [{"measurement": "mMC5R Activity @ 10 μM (class)", "setting": "mMC5R", "result": "B (B: >51%)"}, {"measurement": "mMC5R Activity @ 10 μM (relative activity, percent)", "setting": "mMC5R", "result": 77, "unit": "%"}, {"measurement": "mMC1R Activity @ 10 μM (class)", "setting": "mMC1R", "result": "B (B: >51%)"}, {"measurement": "mMC1R Activity @ 10 μM (relative activity, percent)", "setting": "mMC1R", "result": 62, "unit": "%"}]}, {"smiles": "CCC[C@@H]1CN([C@H](Cc2ccccc2)CN2CCC[C@H]2CN2C(=N)NC[C@H]2CC(C)C)C(=N)N1CCCC(C)C", "note": "[TPI 2509-18, (R)-1-((R)-1-((S)-2-(((R)-2-imino-5-isobutylimidazolidin-1-yl)methyl)pyrrolidin-1-yl)-3-phenylpropan-2-yl)-3-(4-methylpentyl)-4-propylimidazolidin-2-imine]", "values": [{"measurement": "mMC4R Activity @ 10 μM (class)", "setting": "mMC4R", "result": "B (B: >51%)"}, {"measurement": "EC50", "setting": "mMC5R", "result": "2180 ± 625", "unit": "nM"}]}, {"smiles": "CC(C)CCCN1C(=N)N([C@H](Cc2ccccc2)CN2CCC[C@H]2CN2C(=N)NC[C@H]2CC(C)C)C[C@H]1C(C)C", "note": "[TPI 2509-21, (R)-1-((R)-1-((S)-2-(((R)-2-imino-5-isobutylimidazolidin-1-yl)methyl)pyrrolidin-1-yl)-3-phenylpropan-2-yl)-4-isopropyl-3-(4-methylpentyl)imidazolidin-2-imine]", "values": [{"measurement": "mMC3R Activity @ 10 μM (class)", "setting": "mMC3R", "result": "A (A: <50%)"}, {"measurement": "mMC4R Activity @ 10 μM (class)", "setting": "mMC4R", "result": "A (A: <50%)"}, {"measurement": "EC50", "setting": "mMC5R", "result": "1260 ± 130", "unit": "nM"}]}, {"smiles": "CC(C)CCCN1C(=N)N([C@H](Cc2ccccc2)CN2CCC[C@H]2CN2C(=N)NC[C@H]2C(C)C)C[C@H]1[C@@H](C)O", "note": "[TPI 2509-33, (R)-1-((S)-2-imino-1-((R)-1-((S)-2-(((R)-2-imino-5-isopropylimidazolidin-1-yl)methyl)pyrrolidin-1-yl)-3-phenylpropan-2-yl)-3-(4-methylpentyl)imidazolidin-4-yl)ethanol]", "values": [{"measurement": "mMC5R Activity @ 10 μM (class)", "setting": "mMC5R", "result": "A (A: <50%)"}, {"measurement": "mMC5R Activity @ 10 μM (relative activity, percent)", "setting": "mMC5R", "result": 40, "unit": "%"}, {"measurement": "mMC1R Activity @ 10 μM (class)", "setting": "mMC1R", "result": "B (B: >51%)"}]}, {"smiles": "CCC[C@@H]1CN([C@H](Cc2ccccc2)CN2CCC[C@H]2CN2C(=N)NC[C@H]2C(C)C)C(=N)N1CCCC(C)C", "note": "[TPI 2509-36, (R)-1-((R)-1-((S)-2-(((R)-2-imino-5-isopropylimidazolidin-1-yl)methyl)pyrrolidin-1-yl)-3-phenylpropan-2-yl)-3-(4-methylpentyl)-4-propylimidazolidin-2-imine]", "values": [{"measurement": "mMC4R Activity @ 10 μM (class)", "setting": "mMC4R", "result": "A (A: <50%)"}, {"measurement": "mMC4R Activity @ 10 μM (relative activity, percent)", "setting": "mMC4R", "result": 41, "unit": "%"}, {"measurement": "EC50", "setting": "mMC5R", "result": "2030 ± 980", "unit": "nM"}, {"measurement": "EC50", "setting": "mMC1R", "result": "22.9 ± 10", "unit": "µM"}]}, {"smiles": "CC(C)CCCN1C(=N)N([C@H](Cc2ccccc2)CN2CCC[C@H]2CN2C(=N)NC[C@H]2C(C)C)C[C@H]1C(C)C", "note": "[TPI 2509-39, (R)-1-((R)-1-((S)-2-(((R)-2-imino-5-isopropylimidazolidin-1-yl)methyl)pyrrolidin-1-yl)-3-phenylpropan-2-yl)-4-isopropyl-3-(4-methylpentyl)imidazolidin-2-imine]", "values": [{"measurement": "mMC4R Activity @ 10 μM (class)", "setting": "mMC4R", "result": "A (A: <50%)"}, {"measurement": "mMC4R Activity @ 10 μM (relative activity, percent)", "setting": "mMC4R", "result": 21, "unit": "%"}, {"measurement": "EC50", "setting": "mMC5R", "result": "1600 ± 460", "unit": "nM"}, {"measurement": "EC50", "setting": "mMC1R", "result": "10.2 ± 6.57", "unit": "µM"}]}]}
